Results on 19 compounds are retold here after patent publication US20210300936A1, “PYRAZOLOTRIAZOLOPYRIMIDINE DERIVATIVES AS A2A RECEPTOR ANTAGONIST” (BEIGENE, LTD., priority 2018, published 2021).

The assay addresses human A2A receptor (A2AR) (Homo sapiens, UniProt P29274). The assay can be described thus: Luciferase reporter assay (HEK293-A2AR-luc2p/CRE/Hygro cells, 3 nM CGS21680). The settings on record: 3 nM CGS21680, 5 h incubation. Format: cell-based. Put shortly: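 Antagonist (0.1–10000 nM) and 3 nM CGS21680 were co-added for 5 h to stable HEK293-A2AR-luc2p/CRE cells, 18 h after seeding in 1% FBS medium containing adenosine deaminase. Luminescence was normalized to agonist alone (100%), and IC50 came from the dose–inhibition curve.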
On the technique in general: A reporter such as luciferase makes a cellular process visible.

The IC50 is the midpoint of a concentration-inhibition curve. A high value points to lower potency.

Sequence of human A2A receptor (A2AR) (P29274 whole entry): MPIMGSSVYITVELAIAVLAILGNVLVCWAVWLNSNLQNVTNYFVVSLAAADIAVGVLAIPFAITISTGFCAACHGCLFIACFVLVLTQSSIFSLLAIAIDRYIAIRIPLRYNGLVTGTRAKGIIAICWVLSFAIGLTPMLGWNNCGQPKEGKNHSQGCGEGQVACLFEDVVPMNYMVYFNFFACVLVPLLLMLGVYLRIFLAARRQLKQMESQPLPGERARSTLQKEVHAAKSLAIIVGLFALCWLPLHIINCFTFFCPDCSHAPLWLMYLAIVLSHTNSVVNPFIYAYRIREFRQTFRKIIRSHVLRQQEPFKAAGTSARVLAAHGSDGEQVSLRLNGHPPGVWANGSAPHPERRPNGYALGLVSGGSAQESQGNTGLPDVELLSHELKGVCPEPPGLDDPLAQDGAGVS

Compound `C[C@@](C(=O)N1CCN(c2ccc(OCCCN3CCCC3)cc2)CC1)(c1ccccc1)n1ncc2c1nc(N)n1nc(-c3ccco3)nc21` [Compound A79a, (S)-2-(5-amino-2-(furan-2-yl)-7H-pyrazolo[4,3-e][1,2,4]triazolo[1,5-c]pyrimidin-7-yl)-2-phenyl-1-(4-(4-(3-(pyrrolidin-1-yl)propoxy)phenyl)piperazin-1-yl)propan-1-one] came in with an IC50 of 21.4 nM.

Consider `CNCCOc1ccc(N2CCN(C(=O)C(C)(c3ccccc3)n3ncc4c3nc(N)n3nc(-c5ccco5)nc43)CC2)cc1` (stereo not shown) [Compound A107, 2-(5-amino-2-(furan-2-yl)-7H-pyrazolo[4,3-e][1,2,4]triazolo[1,5-c]pyrimidin-7-yl)-1-(4-(4-(2-(methylamino)ethoxy)phenyl)piperazin-1-yl)-2-phenylpropan-1-one], for which the concentration for half-maximal inhibition (IC50) came out at 4.8 nM.

Compound `Nc1nc2c(cnn2C(C(=O)N2CCN(c3ccc(OCCO)cc3)CC2)c2ccccc2)c2nc(-c3ccco3)nn12` (stereo not shown) [Compound A61, 2-(5-amino-2-(furan-2-yl)-7H-pyrazolo[4,3-e][1,2,4]triazolo[1,5-c]pyrimidin-7-yl)-1-(4-(4-(2-hydroxyethoxy)phenyl)piperazin-1-yl)-2-phenylethan-1-one] came in with a concentration for half-maximal inhibition (IC50) of 0.5 nM.

The compound `CCCC(C(=O)N1CCN(c2ccc(OCCN(C)C)cc2)CC1)n1ncc2c1nc(N)n1nc(-c3ccco3)nc21` (stereo not shown) [Compound A39, 2-(5-amino-2-(furan-2-yl)-7H-pyrazolo[4,3-e][1,2,4]triazolo[1,5-c]pyrimidin-7-yl)-1-(4-(4-(2-(dimethylamino)ethoxy)phenyl)piperazin-1-yl)pentan-1-one] showed a 50% inhibitory concentration (IC50) of 5.3 nM.

In turn, `COCCOc1ccc(N2CCN(C(=O)C(c3ccccc3)n3ncc4c3nc(N)n3nc(-c5ccco5)nc43)C[C@H]2C)cc1` (stereo partly drawn) [Compound A47, 2-(5-amino-2-(furan-2-yl)-7H-pyrazolo[4,3-e][1,2,4]triazolo[1,5-c]pyrimidin-7-yl)-1-((R)-4-(4-(2-methoxyethoxy)phenyl)-3-methylpiperazin-1-yl)-2-phenylethan-1-one] showed an IC50 of 2.8 nM.

`COCCOc1ccc(N2CCN(C(=O)C(Cc3ccccc3)n3cc4c(nc(N)n5nc(-c6ccco6)nc45)n3)CC2)cc1` (stereo not shown) [Compound C20, 2-(5-amino-2-(furan-2-yl)-8H-pyrazolo[4,3-e][1,2,4]triazolo[1,5-c]pyrimidin-8-yl)-1-(4-(4-(2-methoxyethoxy)phenyl)piperazin-1-yl)-3-phenylpropan-1-one]: the concentration for half-maximal inhibition (IC50) was determined as 2070 nM.

Turning to `CNCCOc1ccc(N2CCN(C(=O)C(C)n3cc4c(nc(N)n5nc(-c6ccco6)nc45)n3)CC2)cc1` (stereo not shown) [Compound C24, 2-(5-amino-2-(furan-2-yl)-8H-pyrazolo[4,3-e][1,2,4]triazolo[1,5-c]pyrimidin-8-yl)-1-(4-(4-(2-(methylamino)ethoxy)phenyl)piperazin-1-yl)propan-1-one], 35.5 nM corresponded to half-maximal inhibition (IC50).

Consider `CCCC(C(=O)N1CCN(c2ccc(OCCOC)c(F)c2)CC1)n1ncc2c1nc(N)n1nc(-c3ccco3)nc21` (stereo not shown) [Compound A53, 2-(5-amino-2-(furan-2-yl)-7H-pyrazolo[4,3-e][1,2,4]triazolo[1,5-c]pyrimidin-7-yl)-1-(4-(3-fluoro-4-(2-methoxyethoxy)phenyl)piperazin-1-yl)pentan-1-one], for which 5 nM corresponded to half-maximal inhibition (IC50).

In turn, `COCCOc1ccc(N2CCN(C(=O)C(C(C)C)n3ncc4c3nc(N)n3nc(-c5ccco5)nc43)CC2)cc1` (stereo not shown) [Compound A2, 2-(5-amino-2-(furan-2-yl)-7H-pyrazolo[4,3-e][1,2,4]Triazolo[1,5-c]pyrimidin-7-yl)-1-(4-(4-(2-methoxyethoxy)phenyl)piperazin-1-yl)-3-methylbutan-1-one] yielded an IC50 of 96.9 nM.

Regarding `COCCOc1cc(F)c(N2CCN(C(=O)[C@](C)(c3ccccc3)n3ncc4c3nc(N)n3nc(-c5ccco5)nc43)CC2)cc1F` [Compound A65a, (S)-2-(5-amino-2-(furan-2-yl)-7H-pyrazolo[4,3-e][1,2,4]triazolo[1,5-c]pyrimidin-7-yl)-1-(4-(2,5-difluoro-4-(2-methoxyethoxy)phenyl)piperazin-1-yl)-2-phenylpropan-1-one], the IC50 was 21.4 nM.

On to `CCCC(C(=O)N1CCN(c2ccc(OCCOC)cc2F)CC1)n1ncc2c1nc(N)n1nc(-c3ccco3)nc21` (stereo not shown) [Compound A24, 2-(5-amino-2-(furan-2-yl)-7H-pyrazolo[4,3-e][1,2,4]triazolo[1,5-c]pyrimidin-7-yl)-1-(4-(2-fluoro-4-(2-methoxyethoxy)phenyl)piperazin-1-yl)pentan-1-one], for which the midpoint of inhibition, the IC50, lay at 4.4 nM.

In turn, `CNCCOc1ccc(N2CCN(C(=O)C(C)n3ncc4c3nc(N)n3nc(-c5ccco5)nc43)CC2)cc1` (stereo not shown) [Compound A30, 2-(5-amino-2-(furan-2-yl)-7H-pyrazolo[4,3-e][1,2,4]triazolo[1,5-c]pyrimidin-7-yl)-1-(4-(4-(2-(methylamino)ethoxy)phenyl)piperazin-1-yl)propan-1-one] showed an IC50 of 22 nM.

The compound `CCCCC(C(=O)N1CCN(c2ccc(OCCOCCOC)cc2)CC1)n1ncc2c1nc(N)n1nc(-c3ccco3)nc21` (stereo not shown) [Compound A11, 2-(5-amino-2-(furan-2-yl)-7H-pyrazolo[4,3-e][1,2,4]triazolo[1,5-c]pyrimidin-7-yl)-1-(4-(4-(2-(2-methoxyethoxy)ethoxy)phenyl)piperazin-1-yl)hexan-1-one] showed an IC50 of 6.9 nM.

For `COCCOc1ccc(N2CCN(C(=O)C(c3ccc(F)c(F)c3)n3ncc4c3nc(N)n3nc(-c5ccco5)nc43)CC2)cc1` (stereo not shown) [Compound A40, 2-(5-amino-2-(furan-2-yl)-7H-pyrazolo[4,3-e][1,2,4]triazolo[1,5-c]pyrimidin-7-yl)-2-(3,4-difluorophenyl)-1-(4-(4-(2-methoxyethoxy)phenyl)piperazin-1-yl)ethan-1-one], the concentration for half-maximal inhibition (IC50) was 23.7 nM.

`COCCOc1ccc(N2CCN(C(=O)C(C3CC3)n3cc4c(nc(N)n5nc(-c6ccco6)nc45)n3)CC2)cc1` (single isomer, unassigned) [Compound C16b] gave an IC50 of 168 nM.

Turning to `CC(C(=O)N1CCC[C@@H](O)C1)(c1ccccc1)n1ncc2c1nc(N)n1nc(-c3ccco3)nc21` (stereo partly drawn) [Compound B32, 2-(5-amino-2-(furan-2-yl)-7H-pyrazolo[4,3-e][1,2,4]triazolo[1,5-c]pyrimidin-7-yl)-1-((R)-3-hydroxypiperidin-1-yl)-2-phenylpropan-1-one], the IC50 was 111 nM.

In the case of `COCCOCCOc1ccc(N2CCN(C(=O)C(c3ccccc3)n3ncc4c3nc(N)n3nc(-c5ccco5)nc43)CC2)cc1` (stereo not shown) [Compound A14, 2-(5-amino-2-(furan-2-yl)-7H-pyrazolo[4,3-e][1,2,4]triazolo[1,5-c]pyrimidin-7-yl)-1-(4-(4-(2-(2-methoxyethoxy)ethoxy)phenyl)piperazin-1-yl)-2-phenylethan-1-one], the IC50 is 12.7 nM.

As for `COCCOc1ccc(N2CCN(C(=O)C(C)(Cc3ccccc3)n3ncc4c3nc(N)n3nc(-c5ccco5)nc43)CC2)cc1` (stereo not shown) [Compound A97, 2-(5-amino-2-(furan-2-yl)-7H-pyrazolo[4,3-e][1,2,4]triazolo[1,5-c]pyrimidin-7-yl)-1-(4-(4-(2-methoxyethoxy)phenyl)piperazin-1-yl)-2-methyl-3-phenylpropan-1-one], the half-maximal inhibitory concentration (IC50) was 335 nM.

`COCCOc1ccc(N2CCN(C(=O)C(c3ccccc3)n3ncc4c3nc(N)n3nc(-c5ccco5)nc43)CC2C)cc1` (single isomer, unassigned) [Compound A47b] yielded a concentration for half-maximal inhibition (IC50) of 0.2 nM.
